{"source": "patent US20060211651A1", "about": "“Persulfated oligosaccharide acting on selectins and chemokine” (Taisho Pharmaceutical Co., Ltd., priority 2002, published 2006)", "molecules": {"B1": {"name": "P-selectin glycoprotein ligand-1: known ligand of P-selectin (protein, UniProt Q14242 42-412, looked up)", "P-selectin glycoprotein …": "QATEYEYLDYDFLPETEPPEMLRNSTDTTPLTGPGTPESTTVEPAARRSTGLDAGGAVTELTTELANMGNLSTDSAAMEIQTTQPAATEAQTTQPVPTEAQTTPLAATEAQTTRLTATEAQTTPLAATEAQTTPPAATEAQTTQPTGLEAQTTAPAAMEAQTTAPAAMEAQTTPPAAMEAQTTQTTAMEAQTTAPEATEAQTTQPTATEAQTTPLAAMEALSTEPSATEALSMEPTTKRGLFIPFSVSSVTHKGIPMAASNLSVNYPVGAPDHISVKQCLLAILILALVATIFFVCTVVLAVRLSRKGHMYPVRNYSPTEMVCISSLLPDGGEGPSATANGGLSKAKSPGLTPEPREDREGDDLTLHSFLP"}}, "key": {"CD44-Ig [1]": {"test_system": "CD44-Ig", "sequence (P16070 21-178 limits assumed)": "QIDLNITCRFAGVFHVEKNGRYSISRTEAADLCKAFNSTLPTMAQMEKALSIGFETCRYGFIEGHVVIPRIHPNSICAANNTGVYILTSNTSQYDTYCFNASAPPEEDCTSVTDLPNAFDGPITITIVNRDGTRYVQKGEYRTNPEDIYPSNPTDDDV", "experiment": "BIAcore surface plasmon resonance, hyaluronic acid vs CD44-Ig", "parameters": "species or system human", "details": "bivalent analyte binding model", "description": "Then, using the resulting CD44, human CD44-immunoglobulin (Ig) was prepared according to the method described in Toyama-Sorimachi, N. [J. Biol. Chem., 270, 7437-7444, (1995); all teachings of which are hereby incorporated by reference].\n(§1) Affinity kinetics of the interaction between various CS/DS chains and each of L-selectin, P-selectin, CD44 and chemokine were examined by surface plasmon resonance using BIAcore™ biosensor [manufactured by BIAcore AB].\n(§2) All experiments were performed at 25° C. At stages of washing and dissociation, buffer C (20 mM HEPES-NaOH, 0.15M NaCl, 1 mM CaCl2, 1 mM MgCl2, pH6.8) was used as a running buffer.\nFirst, about 1.8 to 2.0 kiloresonance unit (1 kiloresonance unit=1 ng/mm^2) of streptavidin were covalently immobilized onto B1 sensor chip via a primary amine group using an amine coupling kit [manufactured by Amercham-Bioscience] according to the instruction provided by the manufacturer. The remaining activated groups were blocked with 150 μl of 1M ethanolamine-HCl (pH8.5). […]\nBinding assay was performed by injecting continuously each of various concentrations of secondary lymphoid tissue chemokine, γ-interferon inducible protein-10, stromal cell-derived factor-1β, monomeric L-selectin [manufactured by Genzyme-Techne], monomeric P-selectin [manufactured by Genzyme-Techne] and monomeric CD44, to a glycosaminoglycan-coupled sensor tip at a flow rate of 30 μl/min for 0 to 90 seconds, and then injecting a running buffer thereto. A response in resonance unit was recorded as a function of a time. […]\n(§3) In FIG. 6 and Table 3, SLC denotes secondary lymphoid tissue chemokin, IP-10 denotes γ-interferon inducible protein-10, SDF-1β denotes stromal cell-derived factor-1β, CS E denotes chondroitin sulfate E, and CS A denotes chondroitin sulfate A. In addition, in Table 3, Kd value for the interaction between monomeric CD44 and chondroitin sulfate E is a value calculated from a binding amount at equilibrium, and Kd value of the interaction between CD44 and hyaluronic acid is a value calculated using CD44-Ig."}, "L-selectin-Ig": {"target": "T1, L-selectin-Ig (Homo sapiens, UniProt P14151)", "T1 construct": "purchased R & D Systems Inc", "T1 sequence (P14151 with tags, fused parts or gaps limits assumed)": "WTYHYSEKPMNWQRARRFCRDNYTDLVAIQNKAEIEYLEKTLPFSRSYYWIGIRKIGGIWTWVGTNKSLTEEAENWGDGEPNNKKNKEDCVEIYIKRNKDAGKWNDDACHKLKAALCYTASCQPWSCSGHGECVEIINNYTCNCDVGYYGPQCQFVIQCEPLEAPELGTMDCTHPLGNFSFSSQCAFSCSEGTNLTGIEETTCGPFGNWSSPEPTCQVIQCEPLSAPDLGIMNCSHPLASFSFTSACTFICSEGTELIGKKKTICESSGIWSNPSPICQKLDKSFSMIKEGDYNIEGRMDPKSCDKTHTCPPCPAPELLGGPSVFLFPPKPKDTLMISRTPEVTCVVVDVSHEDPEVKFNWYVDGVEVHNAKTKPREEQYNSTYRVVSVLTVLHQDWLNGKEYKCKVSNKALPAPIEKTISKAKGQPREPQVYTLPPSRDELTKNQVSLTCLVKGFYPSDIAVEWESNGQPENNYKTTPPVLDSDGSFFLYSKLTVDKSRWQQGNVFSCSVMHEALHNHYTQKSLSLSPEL", "experiment": "Binding inhibition assay (ELISA), biotinylated versican to L-selectin-Ig, various concentrations", "details": "dose-dependent, FIG. 2 panel A", "description": "(§4) Inhibition assay of binding between versican and each of L-selectin, P-selectin and CD44 was performed as follows. First, each well on a 96 well flat bottom microtiter plate (Coster EIA/RIA plate No. 3690) was coated with L-selectin-Ig (3 μg/ml), P-selectin-Ig (4 μg/ml) or CD44-Ig (0.25 μg/ml) by a conventional procedure. […] The plate was incubated at room temperature for 2 hours. Thereafter, the plate was washed with the buffer A, and enzyme-linked immunosorbent assay was performed in the same manner as described in Kawashima, H. et al. [J. Biol. Chem., 275, 35448-35456 (2000)]. Binding was determined by measuring absorbance at 620 nm using alkaline phosphatase-conjugated streptavidin and Blue Phos™ substrate."}, "monomeric P-selectin [2]": {"target": "T2, monomeric P-selectin (Homo sapiens, UniProt P16109)", "T2 construct": "purchased Genzyme-Techne", "T2 sequence (P16109 42-771 limits assumed)": "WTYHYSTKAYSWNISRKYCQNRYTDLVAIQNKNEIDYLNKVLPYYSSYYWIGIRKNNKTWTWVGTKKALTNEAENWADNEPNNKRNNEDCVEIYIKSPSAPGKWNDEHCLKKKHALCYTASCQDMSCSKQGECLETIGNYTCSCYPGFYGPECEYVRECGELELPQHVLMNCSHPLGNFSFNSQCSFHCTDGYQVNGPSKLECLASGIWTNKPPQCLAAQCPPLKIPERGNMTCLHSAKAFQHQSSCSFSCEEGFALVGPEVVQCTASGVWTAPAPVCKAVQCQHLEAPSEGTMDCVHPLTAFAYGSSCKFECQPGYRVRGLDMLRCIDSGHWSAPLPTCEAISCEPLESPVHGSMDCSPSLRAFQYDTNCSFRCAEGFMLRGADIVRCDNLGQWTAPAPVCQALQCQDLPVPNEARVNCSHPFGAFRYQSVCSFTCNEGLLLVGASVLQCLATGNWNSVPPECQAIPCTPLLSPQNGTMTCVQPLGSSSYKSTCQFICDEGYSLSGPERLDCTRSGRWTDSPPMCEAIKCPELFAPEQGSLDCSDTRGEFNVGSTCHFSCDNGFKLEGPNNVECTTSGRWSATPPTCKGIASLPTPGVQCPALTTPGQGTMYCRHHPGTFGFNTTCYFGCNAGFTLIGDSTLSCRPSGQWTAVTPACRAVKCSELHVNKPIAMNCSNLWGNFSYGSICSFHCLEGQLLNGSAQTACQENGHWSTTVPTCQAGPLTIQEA", "experiment": "BIAcore surface plasmon resonance, immobilized glycosaminoglycan vs monomeric P-selectin", "format": "binding", "details": "monomeric P-selectin", "description": "as §1, §2\n(§5) First, about 1.8 to 2.0 kiloresonance unit (1 kiloresonance unit=1 ng/mm^2) of streptavidin were covalently immobilized onto B1 sensor chip via a primary amine group using an amine coupling kit [manufactured by Amercham-Bioscience] according to the instruction provided by the manufacturer. The remaining activated groups were blocked with 150 μl of 1M ethanolamine-HCl (pH8.5). Then, each glycosaminoglycan which had been biotinylated at a reducing end was injected to a sensor tip surface by using EZ-link™ biotin-LC-hydrazide [manufactured by Pierce] so as to obtain about 150 resonance unit of an immobilization level, according to the method of Sadir et al. [J. Biol. Chem., 276, 8288-8296 (2001); all teachings of which are hereby incorporated by reference].\n(§6) Binding assay was performed by injecting continuously each of various concentrations of secondary lymphoid tissue chemokine, γ-interferon inducible protein-10, stromal cell-derived factor-1β, monomeric L-selectin [manufactured by Genzyme-Techne], monomeric P-selectin [manufactured by Genzyme-Techne] and monomeric CD44, to a glycosaminoglycan-coupled sensor tip at a flow rate of 30 μl/min for 0 to 90 seconds, and then injecting a running buffer thereto. A response in resonance unit was recorded as a function of a time.\n(§7) A sensor tip surface was regenerated with 300 μl of 1 M NaCl when chemokine or CD44 was used, or regenerated with 300 μl of 1 M NaCl, and additional 100 μl of 50 mM EDTA (pH8.0), when selectin was used. As a result of regeneration of a sensor tip surface, a remarkable change in a baseline was not observed.\nas §3, with “An affinity kinetic parameter was determined by BIAevaluation 3.0 software [manufactured by Pharmacia Biosensor] using a single site binding model. […] In FIG.” for “In FIG.”"}, "monomeric L-selectin": {"target": "T3, monomeric L-selectin (Homo sapiens, UniProt P14151)", "T3 construct": "purchased Genzyme-Techne", "T3 sequence (P14151 39-332 limits assumed)": "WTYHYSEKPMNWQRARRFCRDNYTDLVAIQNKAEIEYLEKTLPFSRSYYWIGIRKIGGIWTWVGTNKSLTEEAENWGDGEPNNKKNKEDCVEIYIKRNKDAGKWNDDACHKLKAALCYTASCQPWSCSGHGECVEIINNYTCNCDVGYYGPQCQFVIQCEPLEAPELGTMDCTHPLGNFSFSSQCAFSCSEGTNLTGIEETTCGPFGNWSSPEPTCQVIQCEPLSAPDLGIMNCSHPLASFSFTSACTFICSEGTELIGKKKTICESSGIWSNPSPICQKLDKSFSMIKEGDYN", "experiment": "BIAcore surface plasmon resonance, immobilized glycosaminoglycan vs monomeric L-selectin", "format": "binding", "details": "monomeric L-selectin", "description": "as §1, §2, §5, §6, §7\nas §3, with “An affinity kinetic parameter was determined by BIAevaluation 3.0 software [manufactured by Pharmacia Biosensor] using a single site binding model. […] In FIG.” for “In FIG.”"}, "CD44-Ig [3]": {"test_system": "CD44-Ig", "experiment": "ELISA, biotinylated versican binding to CD44-Ig in presence of glycosaminoglycan", "parameters": "species or system human", "details": "100 μg/ml glycosaminoglycan; FIG. 5", "description": "A well of a 96 well flat bottom microtiter plate was coated with BSA (5 μg/ml), anti-versican monoclonal antibody 2B1 (5 μg/ml), CD44-Ig (7 μg/ml), L-selectin-Ig (3 μg/ml), P-selectin-Ig (3 μg/ml) or chemokine (1 μg/ml), and then blocked with a phosphate buffered physiological saline containing 3% by weight of BSA. As the above chemokine, secondary lymphoid tissue chemokine, γ-interferon inducible protein-10, platelet factor 4, stromal cell-derived factor-1β [manufactured by Pepro Tech] and stromal cell-derived factor-1α [manufactured by Pepro Tech] were used.\nThereafter, the plate was washed with the buffer A, and enzyme-linked immunosorbent assay was performed in the same manner as that of the previous report [Kawashima, H. et al., J. Biol. Chem., 275, 35448-35456 (2000)]. Binding was determined by measuring absorbance at 620 nm using alkaline phosphatase-conjugated streptavidin and Blue Phos™ substrate. In FIG. 5, expression of an abscissa axis is the same as that of FIG. 4."}, "[4]": {"test_system": "secondary lymphoid tissue chemokine", "experiment": "BIAcore surface plasmon resonance, immobilized glycosaminoglycan vs SLC", "format": "binding", "description": "as §1, §2, §5, §6, §7\nas §3, with “An affinity kinetic parameter was determined by BIAevaluation 3.0 software [manufactured by Pharmacia Biosensor] using a single site binding model. […] In FIG.” for “In FIG.”"}, "[5]": {"target": "T4, stromal cell-derived factor-1β (Homo sapiens, UniProt P48061)", "T4 construct": "purchased Pepro Tech", "T4 sequence (P48061 22-93)": "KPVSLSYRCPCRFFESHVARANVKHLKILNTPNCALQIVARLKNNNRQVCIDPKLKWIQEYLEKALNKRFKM", "experiment": "BIAcore surface plasmon resonance, immobilized glycosaminoglycan vs SDF-1β", "format": "binding", "description": "as §1, §2, §5, §6, §7\nas §3, with “An affinity kinetic parameter was determined by BIAevaluation 3.0 software [manufactured by Pharmacia Biosensor] using a single site binding model. […] In FIG.” for “In FIG.”"}, "P-selectin-Ig": {"test_system": "P-selectin-Ig", "experiment": "Binding inhibition assay (ELISA), biotinylated versican to P-selectin-Ig, various concentrations", "details": "dose-dependent, FIG. 2 panel B", "description": "as §4"}, "[6]": {"target": "γ-interferon inducible protein-10 (Homo sapiens, UniProt P02778)", "sequence (P02778 22-98)": "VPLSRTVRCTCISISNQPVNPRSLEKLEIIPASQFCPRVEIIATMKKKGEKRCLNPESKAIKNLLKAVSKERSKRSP", "experiment": "BIAcore surface plasmon resonance, immobilized glycosaminoglycan vs IP-10", "format": "binding", "description": "as §1, §2, §5, §6, §7\nas §3, with “An affinity kinetic parameter was determined by BIAevaluation 3.0 software [manufactured by Pharmacia Biosensor] using a single site binding model. […] In FIG.” for “In FIG.”"}, "monomeric CD44": {"target": "T5, monomeric CD44 (Homo sapiens, UniProt P16070)", "T5 construct": "codons of amino acids positions 172 to 178 of human CD44; Myc-His (from vector pcDNA 3.1/Myc-His(+) B) (C); made in house; host or cells: 293T cells, secreted into conditioned medium and purified on anti-CD44 BRIC 235 Sepharose", "T5 sequence (P16070 21-178 limits assumed)": "as the sequence (P16070 21-178 limits assumed) above", "experiment": "BIAcore surface plasmon resonance, immobilized glycosaminoglycan vs monomeric CD44", "format": "binding", "details": "CD44 monomeric; GAG immobilized; 25° C.", "description": "Human-derived CD44 cDNA was prepared by PCR using a sense primer (SEQ ID NO: 1):\nThereafter, the conditioned medium was subjected to immunoaffinity chromatography with anti-CD44 monoclonal antibody BRIC 235-coupled CNBr-activated Sepharose 4B, to obtain monomeric CD44. The resulting soluble CD44 was subjected to SDS-PAGE and silver staining. As a result, the purity of the resulting soluble CD44 was more than 95%.\nas §1, §2, §5, §6, §7\nas §3, with “An affinity kinetic parameter was determined by BIAevaluation 3.0 software [manufactured by Pharmacia Biosensor] using a single site binding model. […] In FIG.” for “In FIG.”"}, "monomeric P-selectin [7]": {"target": "T2, monomeric P-selectin", "details": "cited from earlier work"}}}
{"molecule": "hyaluronic acid [HA]", "values": [{"measurement": "koff", "setting": "CD44-Ig [1]; CD44-Ig", "result": 0.0543, "unit": "s⁻¹"}, {"measurement": "kon", "setting": "CD44-Ig [1]; CD44-Ig", "result": 26100, "unit": "M⁻¹ s⁻¹"}, {"measurement": "Kd", "setting": "CD44-Ig [1]; determined using CD44-Ig", "result": 2080, "unit": "nM"}]}
{"molecule": "chondroitin", "values": [{"measurement": "inhibition of binding between biotinylated versican and L-selectin-Ig", "setting": "L-selectin-Ig", "result": "not inhibited"}, {"measurement": "interaction with immobilized glycosaminoglycan (sensorgram)", "setting": "monomeric P-selectin [2]", "result": "did not interact"}, {"measurement": "interaction with immobilized glycosaminoglycan (sensorgram)", "setting": "monomeric L-selectin", "result": "did not interact"}, {"measurement": "inhibition of binding between biotinylated versican and CD44-Ig", "setting": "CD44-Ig [3]", "result": "inhibited"}, {"measurement": "interaction with immobilized glycosaminoglycan (sensorgram)", "setting": "[4]", "result": "did not interact"}, {"measurement": "interaction with immobilized glycosaminoglycan (sensorgram)", "setting": "[5]", "result": "did not interact"}, {"measurement": "inhibition of binding between biotinylated versican and P-selectin-Ig", "setting": "P-selectin-Ig", "result": "not inhibited"}, {"measurement": "interaction with immobilized glycosaminoglycan (sensorgram)", "setting": "[6]", "result": "did not interact"}, {"measurement": "Kd", "setting": "monomeric CD44", "result": 129000, "unit": "nM"}, {"measurement": "koff", "setting": "monomeric CD44", "result": 0.0649, "unit": "s⁻¹"}, {"measurement": "kon", "setting": "monomeric CD44", "result": 503, "unit": "M⁻¹ s⁻¹"}]}
{"molecule": "B1", "values": [{"measurement": "Kd", "setting": "monomeric P-selectin [7]", "result": "~300", "unit": "nM"}, {"measurement": "association rate", "setting": "monomeric P-selectin [7]", "result": "4.4e+06", "unit": "M⁻¹ s⁻¹"}, {"measurement": "dissociation rate", "setting": "monomeric P-selectin [7]", "result": 1.4, "unit": "s⁻¹"}]}
